Measured values taken from patent publication US6531476B1, “Piperazine derivatives inhibiting human immunodeficiency virus replication” (Universite Paris 7 - Denis Diderot, priority 1998, dated 2003).
Like-named read-outs stand apart in the source and are kept apart here.

Key:
HIV-1/Ba-L [1] = experiment: Various procedures for treating monocyte-derived macrophages (before/after infection, maintained or not); assay type: cell-based; conditions: Human immunodeficiency virus 1, BAL, Macrophage, triplicate, read-out: percentage of inhibition (I) of the viral replication
Procedure: Various procedures for treating monocyte-derived macrophages with the piperazine derivatives in accordance with the invention were tested using a protocol similar to that described in Example 14.
In these tests, however, the macrophage cultures were divided into three groups:
a first group (group 1 below) in which the macrophages were treated with the piperazine derivatives 24 hours before being infected with HIV (i.e. on D3) and the treatment was maintained up to D28, as described in Example 14,
a second group (group 2 below) in which the macrophages were treated 24 hours after having been infected with HIV (i.e. on D5) and the treatment was maintained up to D28, and
a third group (group 3 below) in which the macrophages were treated 24 hours before being infected with HIV (i.e. on D3), but the treatment was not subsequently maintained.
In all cases, the piperazine derivatives were used at a dose of 100 μM and the tests were carried out in triplicate.

[2] = test system: monocyte-derived macrophages; experiment: Cytotoxicity: neutral red viability test on monocyte-derived macrophage cultures; assay type: cell-based; conditions: 100 μM, FIG. 3
Procedure: The cytotoxicity of the piperazine derivatives in accordance with the invention was evaluated by measuring, by means of three different tests:
a test with neutral red, the viability of peripheral blood mononuclear cell cultures and of monocyte-derived macrophage cultures treated with the piperazine derivatives in accordance with the invention and by comparing the results obtained with those observed for “control” cultures, i.e. peripheral blood mononuclear cell cultures or monocyte-derived macrophage cultures prepared under the same conditions but in the absence of any treatment with said piperazine derivatives.
The neutral red test is also a test which is used on adherent cells and which was used to measure the effects of the piperazine derivatives in accordance with the invention on the monocyte-derived macrophages. […]
In all cases, the viability of the peripheral blood mononuclear cells and of the monocyte-derived macrophages was measured before culturing them, and then at each renewal of the culture media.

HIV-1/Ba-L [3] = experiment: Inhibition of HIV replication in monocyte-derived macrophages (reverse transcriptase activity in culture supernatants); assay type: cell-based; conditions: dose-effect curve FIG. 1
Description: a) Production and Culturing of the Macrophages
The macrophages were obtained by differentiation of monocytes which were themselves isolated from peripheral blood mononuclear cells.
To do this, the peripheral blood mononuclear cells were separated from the other elements of the blood by centrifugation on a ficoll gradient (MSL 2000, from Eurobio) and washed twice in RPMI 1640 medium (from Boehringer Mannheim). The monocytes were isolated from these mononuclear cells by counter-current elutriation. The fractions collected were analyzed using a cell counter-analyzer (from Coulter) and the cells corresponding to each fraction were phenotyped and then analyzed using a flow cytometer (FACS, from Becton Dickinson). The purity of the monocytes thus collected is at least equal to 95%.
These monocytes were then suspended in a culture medium (medium A below) comprising RPMI 1640 medium (from Boehringer Mannheim) supplemented with 10% fetal calf serum (from Boehringer Mannheim) decomplemented beforehand by treatment at 56° C. for 30 minutes, L-glutamine (2 mM) and a solution containing 100 μg/ml of 3 antibiotics: penicillin, streptomycin and neomycin (PSN, from Life Technologies), at a rate of 1 million monocytes per ml of culture medium. […]

| melting point [°C] | Structure (SMILES) | inhibition at 100 µM (HIV-1/Ba-L [1]; 24 h, Group 2: treated 24 hours after infection (D5), maintained up to D28, average ± standard deviation) [%] | inhibition at 100 µM (HIV-1/Ba-L [1]; Group 1: treated 24 hours before infection (D3), maintained up to D28, average ± standard deviation) [%] | inhibition at 100 µM (HIV-1/Ba-L [1]; Group 3: treated 24 hours before infection (D3), treatment not maintained, average ± standard deviation) [%] | viability of monocyte-derived macrophage cultures versus control cultures (number of live cells) [2] | doses at which inhibitory activity on HIV replication is shown (HIV-1/Ba-L [3]) |
| --- | --- | --- | --- | --- | --- | --- |
| 105.8 | CCN(CC)C(=O)OCC1CN(C(=S)c2cc(OC)c(OC)c(OC)c2)CCN1C(=O)c1cc(OC)c(OC)c(OC)c1 (stereo not shown) | – | – | – | – | – |
| – | CCN(CC)C(=O)OCC1CN(C(=O)c2cc(OC)c(OC)c(OC)c2)CCN1C(=O)c1cc(OC)c(OC)c(OC)c1 (stereo not shown) [Example 2, 1,4-bis(3′,4′,5′-trimethoxybenzoyl)-2-(N,N-diethylaminocarbonyloxymethyl)piperazine] | 88 ± 12 | 91 ± 2 | 73 ± 2 | no significant difference | above 1 μM |
| 134 | CCN(CC)C(=O)OCC1CN(C(=O)c2cc(OC)c(OC)c(OC)c2)CCN1Cc1ccccc1.Cl (stereo not shown) [Example 8, 1-benzyl-4-(3′,4′,5′-trimethoxybenzoyl)-2-(N,N-diethylaminocarbonyloxymethyl)piperazine hydrochloride] | – | – | – | – | – |
